Laboratory results from patent US7491832B2, “Sulfonate compound and fluorescent probe using the same” (Osaka Industrial Promotion Organization, priority 2003, dated 2009).

Legend:
[1] = microplate assay, fluorescence response in the HPX-XO system (O2-. source), with or without catalase or SOD; conditions: for Fluorescence Intensity (RFU), HPX + XO + catalase: HPX + XO with catalase (5000 U/ml, 10 μl); for Fluorescence Intensity (RFU), HPX + XO + catalase / Fluorescence Intensity (RFU), HPX + XO + SOD: blank subtracted; for Fluorescence Intensity (RFU), HPX + XO + SOD: HPX + XO with superoxide dismutase (10 μl); for fluorescence response in the HPX-XO system on addition of catalase (in words): catalase 5000 U/ml; for fluorescence response in the HPX-XO system on addition of catalase (in words) / fluorescence response in the HPX-XO system in the presence of SOD (in words): 10 μl; for Fluorescence Intensity (RFU), HPX + XO: hypoxanthine (1 mM, 10 μl) + xanthine oxidase (0.26 U/ml, 10 μl), blank without HPX subtracted; for fluorescence response in the HPX-XO system in the presence of SOD (in words): superoxide dismutase
Protocol: (§1) The fluorescence response to H2O2 achieved by each of the thus-obtained compounds 1a, 1b, and 1c was compared with that to HO. (a hydroxyl radical) and that to O2^−. (a superoxide). As a source of HO., the Fenton reaction between H2O2 (1 mM, 10 μl) and Fe^2+ (5 mM, 10 μl) was used. On the other hand, O2^−. was generated by causing an enzyme reaction between hypoxanthine (HPX) (1 mM, 10 μl) and xanthine oxidase (XO) (0.26 U/ml, 10 μl).
(§2) In Table 1, fluorescence responses observed after reacting the compounds 1a, 1b, and 1c with H2O2, HO., or O2^−. were compared with each other. Numbers in Table 1 represent the fluorescence intensity (RFU). Note here that the RFU is a value obtained by subtracting a fluorescence intensity obtained in the absence of H2O2 or HPX from the measured value.

[2] = microplate assay, fluorescence response to HO. from the Fenton reaction (H2O2 + Fe2+); conditions: for Fluorescence Intensity (RFU), H2O2 + Fe^2+: H2O2 (1 mM, 10 μl) + Fe2+ (5 mM, 10 μl) as HO. source, blank subtracted
Protocol: as §1, §2

[3] = 96-well microplate assay, fluorescence response to H2O2; conditions: for response to H2O2 (in words): 96-well microplate assay; for detection limit for H2O2: 150 μl probe solution, 25° C., 60 minutes, RSD n=8; for detection limit for H2O2 / Fluorescence Intensity (RFU), H2O2: HEPES pH 7.4; for Fluorescence Intensity (RFU), H2O2: value minus intensity in the absence of H2O2, probe 1a 25 μM, 1b and 1c 5 μM; for slope of the linear calibration curve: H2O2 calibration, detection limit to 92.3 nmol; for upper end of the linear calibration range: linear from the detection limit upward
Protocol: In this assay, a DMSO solution of the compound 1a (10 mM), a DMSO solution of the compound 1b (2 mM), and a DMSO solution of the compound 1c (2 mM) were provided first and then these solutions were diluted 400-fold with a HEPES buffer solution (pH 7.4, 10 mM). Thus, probe solutions of the respective compounds were prepared. In the respective probe solutions, the concentration of the compound 1a was 25 μM, the concentration of the compound 1b was 5 μM, and the concentration of the compound 1c was 5 μM. Then, 150 μl of each of the probe solutions was allowed to react with H2O2 water (0.92 mM, 10 μl) at 25° C. for 60 minutes. The detection limits of the compounds 1a, 1b, and 1c were 46.0 (RSD, n=8; 1.2%), 23.1 (0.5%), and 4.6 (1.0%) pmol, respectively, which are all acceptable for cellular level detection. With regard to each of the compounds 1a, 1b, and 1c, a linear calibration curve with a correlation coefficient of at least 0.999 was obtained when the detected value was in the range from the detection limit to 92.3 nmol.
as §1, §2

[4] = system: Chlamydomonas reinhardtii cells; test: fluorescence response of probe-loaded alga cells stimulated with Cu2+, PQ or MB under light or in the dark; format: cell-based; conditions: FIG. 1; for fluorescence increment (in words) / selectivity for Cu2+ plus light conditions over PQ and MB (in words) / fluorescence response of loaded cells (in words): probe 25 μM; for fluorescence increment (in words): Cu2+ and irradiation with light; for fluorescence response of loaded cells (in words): incubation under irradiation with light in the presence of Cu2+, 60 minutes
Text: Photic stimulation can cause oxidative stress in green algae. Stimulation with Cu^2+ causes intracellular generation of various ROS such as superoxides, hydrogen peroxide, and hydroxyl radicals. Furthermore, when alga cells are activated specifically by paraquat (PQ) or methylene blue (MB), oxidative stress can be caused by the generation of a superoxide or ^1O2. […] In order to load alga cells with the compounds 1a, 1b, and 1c, the derivatives 2a, 2b, and 2c (Scheme 3) as acetylated forms of the compounds 1a, 1b, and 1c were used.
More specifically, first, the compounds 2a, 2b, and 2c respectively were dissolved in DMSO, thus obtaining 10 mM stock solutions of the respective compounds. Next, Chlamydomonas reinhardtii (IAM C-238) cultured by an ordinary method was inoculated into 3 ml of an MBM culture solution. Thereafter, the MBM culture solution was loaded with 7.5 μl of each of the stock solutions of the compounds 2a, 2b, and 2c in the dark at 25° C. for 30 minutes. Thus, probe-loaded cell suspensions were prepared. Furthermore, a 96-well tissue culture plate was provided, and 50 μl of a MBM solution containing the indicated concentration of CuCl2, PQ, or […] was added to the plate. The probe-loaded cell suspension (50 μl) was inoculated to the plate and then incubated under irradiation with light or in the dark. After 60 minutes, fluorescence in the cells was measured using a fluorescence measuring device (trade name “CytoFluor II multiwell fluorescence plate reader”, PerSeptive Biosystems, USA). For the measurement, an excitation filter was set at 485±20 nm and an emission filter was set at 530±25 nm.
FIG. 1 contains graphs showing the correlation between a concentration and a fluorescence increment when the fluorescence response was measured by loading Chlamydomonas reinhardtii cells with the compound 2a, 2b, or 2c (25 μM) or DCFH-DA (50 μM) in the dark at 25° C. for 30 minutes and incubating them in 96-well microplates under irradiation with light or in the dark in the presence of Cu^2+, PQ, or MB for 60 minutes. In FIG. 1, an empty circle indicates the result obtained when the incubation was carried out under irradiation with light and a solid circle indicates the result obtained when the incubation was carried out in the dark.

[5] = microplate assay of the acetylated forms as hydrogen peroxide-detecting probe (esterase requirement); conditions: microplate assay similar to that of compounds 1

Row | Structure (SMILES) | Fluorescence Intensity (RFU), HPX + XO + catalase [1] | Fluorescence Intensity (RFU), HPX + XO + SOD [1] | fluorescence response in the HPX-XO system on addition of catalase (in words) [1] | Fluorescence Intensity (RFU), HPX + XO [1] | fluorescence response in the HPX-XO system in the presence of SOD (in words) [1] | response to HO. compared with that to H2O2 (in words) [2] | Fluorescence Intensity (RFU), H2O2 + Fe^2+ [2] | response to H2O2 (in words) [3] | detection limit for H2O2 [3] | Fluorescence Intensity (RFU), H2O2 [3] | slope of the linear calibration curve [3] | upper end of the linear calibration range [3] | fluorescence increment (in words) [4] | selectivity for Cu2+ plus light conditions over PQ and MB (in words) [4] | fluorescence response of loaded cells (in words) [4] | requirement of esterase to serve as hydrogen peroxide-detecting probe (in words) [5] | detection of ROS on Cu2+ stimulation (in words) ([4]; DCFH-DA 50 μM) | detection of oxidative stress caused by PQ and MB (in words) ([4]; DCFH-DA 50 μM)
1 | O=C(O)c1ccccc1-c1c2ccc(=O)cc-2oc2cc(OS(=O)(=O)c3c(F)c(F)c(F)c(F)c3F)ccc12 [Compound 1a] | −49 RFU | 899 RFU | eliminated completely | 566 RFU | maintained or increased | much smaller than those to H2O2 | 28 RFU | H2O2 concentration-dependent response | 46.0 pmol | 1150 RFU | 172 au/nmol | 92.3 nmol |  |  |  |  |  | 
2 | O=C(O)c1ccccc1-c1c2cc(Cl)c(=O)cc-2oc2cc(OS(=O)(=O)c3c(F)c(F)c(F)c(F)c3F)c(Cl)cc12 [Compound 1b] | −51 RFU | 1733 RFU | eliminated completely | 1733 RFU | maintained or increased | much smaller than those to H2O2 | 195 RFU | H2O2 concentration-dependent response | 23.1 pmol | 2193 RFU | 215 au/nmol | 92.3 nmol |  |  |  |  |  | 
3 | O=C(O)c1ccccc1-c1c2cc(F)c(=O)cc-2oc2cc(OS(=O)(=O)c3c(F)c(F)c(F)c(F)c3F)c(F)cc12 [Compound 1c] | −44 RFU | 3340 RFU | eliminated completely | 3580 RFU | maintained or increased | much smaller than those to H2O2 | 184 RFU | H2O2 concentration-dependent response | 4.6 pmol | 4375 RFU | 591 au/nmol | 92.3 nmol |  |  |  |  |  | 
4 | CC(=O)Oc1ccc2c(c1)Oc1cc(OS(=O)(=O)c3c(F)c(F)c(F)c(F)c3F)ccc1C21OC(=O)c2ccccc21 (stereo not drawn) [Compound 2a] |  |  |  |  |  |  |  |  |  |  |  |  | great fluorescence increments | high selectivity | exhibited fluorescence response in a stimulation concentration-dependent manner | esterase was necessary |  | 
5 | CC(=O)Oc1cc2c(cc1Cl)C1(OC(=O)c3ccccc31)c1cc(Cl)c(OS(=O)(=O)c3c(F)c(F)c(F)c(F)c3F)cc1O2 (stereo not drawn) [Compound 2b] |  |  |  |  |  |  |  |  |  |  |  |  |  |  | exhibited fluorescence response in a stimulation concentration-dependent manner | esterase was necessary |  | 
6 | CC(=O)Oc1cc2c(cc1F)C1(OC(=O)c3ccccc31)c1cc(F)c(OS(=O)(=O)c3c(F)c(F)c(F)c(F)c3F)cc1O2 (stereo not drawn) [Compound 2c] |  |  |  |  |  |  |  |  |  |  |  |  | great fluorescence increments | high selectivity | exhibited fluorescence response in a stimulation concentration-dependent manner | esterase was necessary |  | 
7 | CC(=O)Oc1cc2c(cc1Cl)C(c1ccccc1C(=O)O)c1cc(Cl)c(OC(C)=O)cc1O2 [DCFH-DA, reference compound] |  |  |  |  |  |  |  |  |  |  |  |  |  |  |  |  | detected ROS generated by the Cu^2+ stimulation | detected the oxidative stress caused by PQ and MB effectively
